Assays:
[1] = tested on: Microsporum canis; assay: Direct addition method, solid compound in Sabouraud dextrose agar; assay type: cell-based; set-up: key: +++: Maximum Fungal Growth; ++: Moderate Fungal Growth; +: Minimum Fungal Growth; +/−: Very little Fungal Growth; −: No Fungal Growth; conditions: 4 mg/mL of agar; 12th day after inoculation
In short: (§1)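 Presence or absence of fungal growth was noted on alternate days, with the day-12 observation used. Test material, added undissolved to 45° C. Sabouraud dextrose medium to reach 4 mg/ml final, was solidified as slants before inoculation and incubation at 25-28° C.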

[2] = tested on: Pityrosporum ovale; assay: as above; assay type: cell-based; set-up: key: +++: Maximum Fungal Growth; ++: Moderate Fungal Growth; +: Minimum Fungal Growth; +/−: Very little Fungal Growth; −: No Fungal Growth; conditions: 4 mg/mL of agar; 12th day after inoculation
In short: as §1

[3] = tested on: Epidermophyton floccosum; assay: as above; assay type: cell-based; set-up: key: +++: Maximum Fungal Growth; ++: Moderate Fungal Growth; +: Minimum Fungal Growth; +/−: Very little Fungal Growth; −: No Fungal Growth; conditions: 4 mg/mL of agar; 12th day after inoculation
In short: as §1

[4] = tested on: Trichophyton rubrum; assay: as above; assay type: cell-based; conditions: against Trichophyton rubrum
Description: (§2) Direct addition method. Sabouraud dextrose agar was prepared according to the manufacturer's instructions and 5.0 ml was dispensed in each 100×25 mm tube. The tubes were autoclaved. To each tube containing 5.0 ml of liquid agar at 45° C., 20 mg of solid test compound was added, to give a final concentration of 4 mg/ml. The agar was solidified in slants. The fungal cultures were then innoculated. The slants were incubated at 25-28 ° C. for 10-12 days, and the growth of the fungus was recorded every second day. The results in Table 2 indicate growth at the 12th day of inoculation.

[5] = tested on: Microsporum audouinni; assay: as above; assay type: cell-based, Microsporum audouinii; set-up: key to Fungal growth: +++: Maximum Fungal Growth; ++: Moderate Fungal Growth; +: Minimum Fungal Growth; +/−: Very little Fungal Growth; −: No Fungal Growth; conditions: 4 mg/mL of agar; 12th day after inoculation
In short: as §1

[6] = tested on: Pityrosporum ovale; assay: Direct addition into the Pityrosporum agar; assay type: cell-based; set-up: key to Pityrosporum ovale growth: +++: Maximum Growth; ++: Moderate Growth; +: Minimum Growth; +/−: Very Little Growth; −: No Growth; conditions: 4 mg/ml in the agar; 18 hours after inoculation
Description: as §2, with “The slants were incubated at 25-28 ° C. for 10-12 days, and the growth of the fungus was recorded every second day. The results in Table 2 indicate growth at the 12th day of inoculation.” left out

[7] = tested on: Trichophyton rubrum; assay: Direct addition method, solid compound in Sabouraud dextrose agar; assay type: cell-based; set-up: key: +++: Maximum Fungal Growth; ++: Moderate Fungal Growth; +: Minimum Fungal Growth; +/−: Very Little Fungal Growth; −: No Fungal Growth; conditions: 4 mg/mL of agar; 12th day after inoculation
Description: as §2

[8] = tested on: Epidermophyton floccosum; assay: Agar dilution method, growth on Sabouraud dextrose agar slants; assay type: cell-based; set-up: key to Fungal growth: +++: Maximum Fungal Growth; ++: Moderate Fungal Growth; +: Minimum Fungal Growth; +/−: Very little Fungal Growth; −: No Fungal Growth; conditions: for Fungal growth: 12th day after inoculation
In short: (§3)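 Autoclaved Sabouraud dextrose agar is cooled to 45 °C, dosed with compound from a DMSO solution, and solidified as slants. Fungi are then inoculated and the slants held at 25-28 °C for 10-12 days.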

[9] = tested on: Microsporum audouinni; assay: as above; assay type: cell-based, Microsporum audouinii; set-up: key: +++: Maximum Fungal Growth; ++: Moderate Fungal Growth; +: Minimum Fungal Growth; +/−: Very little Fungal Growth; −: No Fungal Growth; conditions: 12th day after inoculation
In short: as §3

[10] = tested on: Trichophyton mentagrophyte; assay: as above; assay type: cell-based, Trichophyton mentagrophytes; set-up: key to Fungal growth: +++: Maximum Fungal Growth; ++: Moderate Fungal Growth; +: Minimum Fungal Growth; +/−: Very little Fungal Growth; −: No Fungal Growth; conditions: 12th day after inoculation
In short: as §3

[11] = tested on: Trichophyton rubrum; assay: as above; assay type: cell-based; set-up: key: +++: Maximum Fungal Growth; ++: Moderate Fungal Growth; +: Minimum Fungal Growth; +/−: Very little Fungal Growth; −: No Fungal Growth; conditions: 12th day after inoculation
In short: as §3

[12] = tested on: Microsporum canis; assay: as above; assay type: cell-based; set-up: key: +++: Maximum Fungal Growth; ++: Moderate Fungal Growth; +: Minimum Fungal Growth; +/−: Very little Fungal Growth; −: No Fungal Growth; conditions: 12th day after inoculation
In short: as §3

[13] = tested on: Pityrosporum ovale; assay: as above; assay type: cell-based; set-up: key: +++: Maximum Fungal Growth; ++: Moderate Fungal Growth; +: Minimum Fungal Growth; +/−: Very little Fungal Growth; −: No Fungal Growth; conditions: 12th day after inoculation
In short: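 In this agar dilution format, DMSO solutions of compound went into liquid Sabouraud dextrose agar (45 °C), which was slanted and inoculated. Incubation ran 10-12 days at 25-28 °C.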

[14] = tested on: Microsporum gypseum; assay: as above; assay type: cell-based; set-up: key: +++: Maximum Fungal Growth; ++: Moderate Fungal Growth; +: Minimum Fungal Growth; +/−: Very little Fungal Growth; −: No Fungal Growth; conditions: 12th day after inoculation
In short: as §3

[15] = tested on: Microsporum audouinii; assay: Summary of anti-fungal assays (direct addition, agar dilution, liquid culture); assay type: cell-based; conditions: stated in words (Tables 1a/1b, text to Table 5)
Description: (§4) This example summarizes the results of various other assays of the anti-fungal activity of betulin derivatives. Table 5 summarizes results using different assay methods—direct addition, agar dilution, and direct addition to liquid culture, as disclosed in the previous three Examples. In some cases, only one type of assay was done with a compound. In other cases, the compound was tested by multiple assays.

[16] = tested on: Trichophyton tonsurans; assay: as above; assay type: cell-based; conditions: stated in words (Tables 1a/1b, text to Table 5)
Description: as §4

[17] = tested on: Microsporum gypseum; assay: as above; assay type: cell-based; conditions: stated in words (Tables 1a/1b, text to Table 5)
Description: as §4

[18] = tested on: Epidermophyton floccosum; assay: as above; assay type: cell-based; conditions: stated in words (Tables 1a/1b, text to Table 5); listed as betulin-3,28-diphthalate
Description: as §4

[19] = tested on: Trichophyton tonsuran; assay: Agar dilution method, growth on Sabouraud dextrose agar slants; assay type: cell-based, Trichophyton tonsurans; set-up: key: +++: Maximum Fungal Growth; ++: Moderate Fungal Growth; +: Minimum Fungal Growth; +/−: Very little Fungal Growth; −: No Fungal Growth; conditions: 12th day after inoculation
In short: as §3

C=C(C)C1CCC2(COC(=O)C(N)C(C)C)CCC3(C)C(CCC4C5(C)CCC(OC(=O)C(N)C(C)C)C(C)(C)C5CCC43C)C12 [Betulin-3,28-di-L-valine]
+: Fungal growth [1] | Fungal growth [5]
against Trichophyton rubrum: best anti-fungal or anti-yeast activity by the direct addition method [4]
+/−: Pityrosporum ovale growth [6] | Fungal growth [7]
−: Fungal growth [2] | Fungal growth [3]

C=C(C)[C@@H]1CC[C@]2(COC(=O)c3ccccc3C(=O)O)CC[C@]3(C)[C@H](CC[C@@H]4[C@@]5(C)CC[C@H](OC(=O)c6ccccc6C(=O)O)C(C)(C)[C@@H]5CC[C@]43C)[C@@H]12 [Betulin-3,28-diphthalate]
Trichophyton tonsurans: Active against Trichophyton tonsurans [16]
+: Fungal growth ([9]; 250 μg/ml) | Fungal growth ([10]; 250 μg/ml) | Fungal growth ([11]; 500 μg/ml) | Fungal growth ([12]; 250 μg/ml) | Fungal growth ([14]; 250 μg/ml)
+++: Fungal growth ([13]; 125 μg/ml) | Fungal growth ([13]; 250 μg/ml) | Fungal growth ([13]; 500 μg/ml) | Fungal growth ([19]; 125 μg/ml)
−: Fungal growth ([8]; 1000 μg/ml) | Fungal growth ([9]; 500 μg/ml) | Fungal growth ([9]; 1000 μg/ml) | Fungal growth ([10]; 500 μg/ml) | Fungal growth ([10]; 1000 μg/ml) | Fungal growth ([11]; 1000 μg/ml) | Fungal growth ([12]; 500 μg/ml) | Fungal growth ([12]; 1000 μg/ml) | Fungal growth ([14]; 500 μg/ml) | Fungal growth ([14]; 1000 μg/ml) | Fungal growth ([19]; 1000 μg/ml)
Microsporum gypseum: Active against Microsporum gypseum [17]
Microsporum audouinii: Active against Microsporum audouinii [15]
against Epidermophyton floccosum: best antifungal or anti-yeast activity by the agar dilution method ([8]; against Epidermophyton floccosum) | Active against Epidermophyton floccosum [18]
+/−: Fungal growth ([8]; 500 μg/ml) | Fungal growth ([19]; 500 μg/ml)
++: Fungal growth ([8]; 125 μg/ml) | Fungal growth ([8]; 250 μg/ml) | Fungal growth ([9]; 125 μg/ml) | Fungal growth ([10]; 125 μg/ml) | Fungal growth ([11]; 125 μg/ml) | Fungal growth ([11]; 250 μg/ml) | Fungal growth ([12]; 125 μg/ml) | Fungal growth ([13]; 1000 μg/ml) | Fungal growth ([14]; 125 μg/ml) | Fungal growth ([19]; 250 μg/ml)

Source: patent US6642217B2, “Triterpenes having human antifungal and antiyeast activity” (Naturtek, LLC, priority 2000, dated 2003)
